Test results published in ChEMBL document CHEMBL2380252, “Optimized method of G-protein-coupled receptor homology modeling: its application to the discovery of novel CXCR7 ligands” (J Med Chem, 2013).

Tests used:
[1] = target: T1, Atypical chemokine receptor 3 (Homo sapiens, UniProt P25106); test: Displacement of [125I]SDF-1alpha from CXCR7 (unknown origin) expressed in CHO cells after 1 hr by TopCount scintillation counting analysis; type: cell-based
[2] = target: T1, Atypical chemokine receptor 3; test: Binding affinity to CXCR7 (unknown origin)

T1 sequence (P25106 whole entry): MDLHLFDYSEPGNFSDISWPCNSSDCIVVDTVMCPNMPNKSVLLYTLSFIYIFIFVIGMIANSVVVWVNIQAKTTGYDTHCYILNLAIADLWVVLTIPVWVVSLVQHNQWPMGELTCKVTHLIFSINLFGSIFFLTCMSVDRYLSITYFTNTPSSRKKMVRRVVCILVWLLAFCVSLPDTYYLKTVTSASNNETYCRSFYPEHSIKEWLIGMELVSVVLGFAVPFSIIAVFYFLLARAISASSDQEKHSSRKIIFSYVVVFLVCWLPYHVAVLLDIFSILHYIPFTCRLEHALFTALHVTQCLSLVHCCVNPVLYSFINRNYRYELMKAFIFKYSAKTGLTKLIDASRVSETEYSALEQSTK

Row | IC50 [1] [µM] | IC50 [2] [µM] | SMILES
1 | 4.35 | – | Cc1ccc(C(=O)Nc2ncc(CN3CCC(c4ccccc4)C3)s2)cc1 (stereo not given)
2 | – | 6.33 | O=C(c1cc2c(s1)-c1ccc(Cl)cc1SC2)N1CCC(N2CCCCC2)CC1
3 | 3.89 | – | CCCCN(CC)CCNC(=O)c1ccc(N2CCc3ccccc32)s1
4 | 2.64 | – | Cc1ccc2c(c1)-c1onc(C(=O)NCCN3CCCCC3C)c1CO2 (stereo not given)
5 | 6.75 | – | CCN1CCCC1CNC(=O)c1ccc(-n2ccc3ccccc32)s1 (stereo not given)
6 | 6.19 | – | CCN1CCCC1CNC(=O)CN1C(=O)/C(=C/c2ccccc2F)Sc2ccccc21 (stereo not given)
7 | – | < 0.1 | COc1c(C)cc2cccnc2c1N1CCCN(C(C(=O)N2CCNCC2)c2csc(C(C)C)n2)CC1 (stereo not given)
8 | – | 4.74 | CCc1ccc(NC(=O)CSc2nc3ccccc3c(=O)n2CCCC(=O)NCN2CCOCC2)cc1
9 | 8.02 | – | CC1CCCCN1CC(O)COc1ccc2c3c(c(=O)oc2c1)CCC3 (stereo not given)
10 | 2.16 | – | CCC1CCCCN1CCCNC(=O)CSc1cc(=O)n(C)c2ccc(Cl)cc12 (stereo not given)
11 | 5.84 | – | CN(Cc1ccccc1NC(=O)/C=C/c1cnn(-c2ccccc2)c1)C1CCCCC1
12 | 10 | – | CCN1CCc2nc3sc(C(=O)N4CCc5ccccc5C4)c(N)c3cc2C1
13 | 1.49 | – | Cc1cc(OCC(=O)NC2CCN(Cc3ccccc3)CC2)c2c(C)cc(=O)oc2c1
14 | 2.78 | – | CCC(C(=O)NCCCN(CC)Cc1ccccc1)n1nc(C)c2sc3ccccc3c2c1=O (stereo not given)
15 | 5.27 | – | CC1CCCCN1CCNC(=O)c1cc2c(s1)-c1ccc(Cl)cc1SC2 (stereo not given)
16 | 2.21 | – | CN(CCCNC(=O)c1cc2c(=O)n(C)c3ccccc3c2s1)Cc1ccccc1
17 | 11.4 | – | O=C(NCCCN(Cc1ccco1)C1CCCC1)c1cc2c(s1)-c1ccccc1SC2
18 | – | < 1 | COc1ccc2c(c1)c1c(cnn1CC(=O)NCCN(C)C1CCCCC1)c(=O)n2C
19 | 1.87 | – | COc1ccccc1C(CNC(=O)c1cc(-c2ccc(Br)cc2)on1)N1CCC(C)CC1 (stereo not given)
20 | 3.2 | – | O=C(c1ccc(N2CCc3ccccc32)s1)N1CCC(N2CCCCC2)CC1
21 | 1.29 | – | CC1CCCN(CC(O)COc2ccc3c4c(c(=O)oc3c2)CCC4)C1 (stereo not given)
22 | 2.92 | – | Cc1ccc2c(c1)-c1onc(C(=O)NCCCN3CC(C)CC(C)C3)c1CO2 (stereo not given)
23 | 9.79 | – | CCOc1cc(NC(=S)NCCCN(C)C)c(OCC)cc1NC(=O)c1ccc(C)cc1
24 | 5.36 | – | CN(C)c1ccc(/C=C2\SC(N3CCN(CCO)CC3)=NC2=O)cc1
25 | 7 | – | Cc1ccc2[nH]c(=O)c3cc(C(=O)NCCN4CCCCCC4)sc3c2c1
